Results on eleven compounds are retold here after PubChem BioAssay (NCI).

Each structure is given as a SMILES string.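 1) Cells in 96-well plates. 2) Compound, 48 h, 5 concentrations. 3) Linear interpolation between surrounding doses. 4) Unreached endpoint = highest concentration. At the GI50, growth is halved. At the TGI there is no net growth.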 A value given as a limit tells only on which side of the number the result lay.

Test in all cases: NCI tumour cell line growth inhibition, 48 h
For experiment [1], the system named is ACHN renal.
Experiment [2] has as its system LOX IMVI melanoma.
Experiment [3] concerns SN12C renal.
Experiment [4] has as its system HOP-62 NSCLC.
In experiment [5] the test system is SK-OV-3 ovarian.
Experiment [6] concerns A498 renal.
The test system of experiment [7] is SK-MEL-2 melanoma.
Experiment [8] concerns COLO 205 colon.
Experiment [9] deals with OVCAR-5 ovarian.
Experiment [10] concerns SF-295 CNS.

As for `CN(C)C(=S)SCC(N)=O`, the TGI in [1], in experiment [2], in [3], in [4], in experiment [5] and in [6] was over 100 µM in each case. For the same compound, the TGI in experiment [7], in [8], in [9] and in [10] was over 100 µM throughout.
In the case of `O=C(CC(=O)c1ccccc1)C(=O)NC12CC3CC(CC(C3)C1)C2`, the TGI in experiment [1] is over 100 µM; in [2], over 50 µM; in experiment [3], over 100 µM; in experiment [4], over 100 µM; in [5], over 100 µM; in [6] it was over 100 µM. Moreover, the TGI in [7] is over 100 µM; in experiment [8] it was over 64.8 µM; in experiment [9], over 100 µM; in [10], over 100 µM.
On to `O=C(CC(=O)C1CCOC1=O)C(=O)Nc1ccc(Cl)cc1` (stereo not given), for which the TGI in experiment [1], in [2], in [3], in experiment [4], in [5] and in experiment [6] was over 100 µM each time. In addition, the TGI in experiment [7], in [8], in experiment [9] and in experiment [10] was over 100 µM each time.
As to `Cn1c2ccccc2c2[nH]c3ccccc3c(=O)c21`, the TGI in experiment [1], in experiment [2], in experiment [3], in [4], in experiment [5] and in [6] was over 100 µM in each case. The TGI in experiment [7], in experiment [8], in [9] and in [10] was over 100 µM each time.
For the compound `Cc1cn(Cc2ccccc2CCl)c(=O)n(Cc2ccccc2CCl)c1=O`, the GI50 in experiment [1] was 1.66 µM; in experiment [2], 1.16 µM; in experiment [3], 2.65 µM; in [4], 2.31 µM; in experiment [5], 3.27 µM; in [6], 10.6 µM. Further, the GI50 in experiment [7] was 1.32 µM; in [8], 1.53 µM; in experiment [9], 2.61 µM; in experiment [10] it was 3.52 µM. The TGI in experiment [1] amounted to 3.06 µM; in [2], 2.59 µM; in [3] it was 6.97 µM; in [4] it was 4.13 µM; in experiment [5], 9.62 µM; in experiment [6] it was 27.4 µM. Further, the TGI in experiment [7] was 4.29 µM; in experiment [8] it was 3.54 µM; in [9], 9.69 µM; in [10], 16.7 µM.
Turning to `CN(C)CC1=Nc2cccc3cccc(c23)N1`, the TGI in experiment [1] was 28.2 µM; in [2], 37.3 µM; in experiment [3], 31.8 µM; in experiment [4], over 100 µM; in experiment [5], over 100 µM; in experiment [6], 28.2 µM. The TGI in [7] was 35.5 µM; in [8], 7.11 µM; in experiment [9], 31.6 µM; in experiment [10] it was over 100 µM.
Turning to `Cc1ccc([N+](=O)[O-])c2c(NCCC[N+](C)(C)[O-])ccnc12`, the TGI in [1] is over 100 µM; in experiment [2] it was over 100 µM; in [3] it was over 100 µM; in experiment [4], over 100 µM; in experiment [5], over 100 µM; in [6], 90.5 µM. Also, the TGI in experiment [7] is over 100 µM; in [8], over 100 µM; in experiment [9] it was 84.3 µM; in experiment [10], over 100 µM.
Regarding `O=C1NN=C(c2ccc([N+](=O)[O-])cc2)C1n1nc(-c2ccccc2)c2ccccc2c1=O` (stereo not given), the TGI in [1], in experiment [2], in experiment [3], in experiment [4], in [5] and in [6] was over 100 µM throughout. The TGI in experiment [7], in experiment [8], in [9] and in [10] was over 100 µM throughout.
With `CC(=O)n1c(-c2ccc(Cl)c(Cl)c2)cn(-c2ccc(Cl)cc2)c1=O`, the GI50 in experiment [1] was 27.8 µM; in experiment [2], 83.6 µM; in experiment [3], 31.8 µM; in [4] it was 20.4 µM; in [5], 19.2 µM; in [6], 20.9 µM. In addition, the GI50 in experiment [7] was 22.4 µM; in [8], 53 µM; in experiment [9], 55 µM; in experiment [10], 11.9 µM. The TGI in [1] is over 100 µM; in experiment [2], over 100 µM; in [3], over 100 µM; in experiment [4], 43.8 µM; in experiment [5] it was 44.1 µM; in experiment [6], 47 µM. In addition, the TGI in experiment [7] is 69.2 µM; in [8], over 100 µM; in experiment [9] it was over 100 µM; in experiment [10], 28.8 µM.
As for `CCCCN(CCCC)CCC(O)c1cc2ccc(C(F)(F)F)cc2c2cc(C(F)(F)F)ccc12` (stereo not given), the GI50 in experiment [1] is 2.94 µM; in experiment [2], 1.66 µM; in experiment [3], 3.84 µM; in experiment [4], 2.2 µM; in experiment [5] it was 3.98 µM; in experiment [6], 2.02 µM. Also, the GI50 in experiment [7] is 2.53 µM; in experiment [8], 1.62 µM; in experiment [9] it was 2.97 µM; in [10], 5.18 µM. Further, the TGI in [1] is 12.6 µM; in [2] it was 3.63 µM; in experiment [3] it was 14.6 µM; in [4], 5.68 µM; in experiment [5] it was 15.3 µM; in experiment [6], 5.86 µM. Besides, the TGI in experiment [7] came to 4.51 µM; in experiment [8], 3.33 µM; in experiment [9], 12.8 µM; in experiment [10], 18 µM.
As to `CN(C)c1ncnc2c1ccn2C1OC(CO)C(O)C1O` (stereo not given), the GI50 in experiment [1] was 3.18 µM; in experiment [2] it was 0.559 µM; in [3], 2.62 µM; in experiment [4], 1.71 µM; in [5] it was 0.884 µM; in [6] it was 3.49 µM. Moreover, the GI50 in experiment [7] is over 100 µM; in experiment [8], 18.8 µM; in experiment [9], 5.51 µM; in experiment [10], 6.48 µM. Moreover, the TGI in [1] is over 100 µM; in [2] it was 12.2 µM; in experiment [3] it was over 100 µM; in [4] it was over 100 µM; in experiment [5] it was 21.4 µM; in [6], over 100 µM. Also, the TGI in experiment [7], in experiment [8], in experiment [9] and in [10] was over 100 µM in each case.
